# Laboratory results published in US5179088A, “1-Carba(dethia)cephalosporin antibiotics” (Eli Lilly and Company, priority 1990, dated 1993).
# What was measured:
# Format in all cases: cell-based
# Parameters in all cases: unit not given here
# Streptococcus pn = test: in vitro antibacterial activity, agar dilution (Streptococcus pn); conditions: strain PARK
# Protocol: (§1) *minimum inhibitory concentrations were determined by the Agardilution
# Klebsiella = test: in vitro antibacterial activity, agar dilution (Klebsiella)
# Protocol: as §1
# Streptococcus D = test: in vitro antibacterial activity, agar dilution (Streptococcus D)
# Protocol: as §1
# Pseudomonas = test: in vitro antibacterial activity, agar dilution (Pseudomonas)
# Protocol: as §1
# Proteus rett = test: in vitro antibacterial activity, agar dilution (Proteus rett)
# Protocol: as §1
# Citro = test: in vitro antibacterial activity, agar dilution (Citro)
# Protocol: as §1
# Serratia = test: in vitro antibacterial activity, agar dilution (Serratia)
# Protocol: as §1
# Salmonella = test: in vitro antibacterial activity, agar dilution (Salmonella)
# Protocol: as §1
# Staphylococcus Aureus = test: in vitro antibacterial activity, agar dilution (Staphylococcus aureus)
# Protocol: as §1
# Staphylococcus Epi = test: in vitro antibacterial activity, agar dilution (Staphylococcus epi)
# Protocol: as §1
# H. Influ. = test: in vitro antibacterial activity, agar dilution (H. influ.)
# Protocol: as §1
# Proteus morg = test: in vitro antibacterial activity, agar dilution (Proteus morg)
# Protocol: as §1
# Enterbacter Aerogenes = test: in vitro antibacterial activity, agar dilution (Enterobacter aerogenes)
# Protocol: as §1
# Acin = test: in vitro antibacterial activity, agar dilution (Acin)
# Protocol: as §1
# Enterbacter Cloacea = test: in vitro antibacterial activity, agar dilution (Enterobacter cloacae)
# Protocol: as §1
# Streptococcus A = test: in vitro antibacterial activity, agar dilution (Streptococcus A)
# Protocol: as §1
# E. coli = test: in vitro antibacterial activity, agar dilution (E. coli)
# Protocol: as §1
# Proteus incon = test: in vitro antibacterial activity, agar dilution (Proteus incon)
# Protocol: as §1
smiles,measurement,setting,value
"CO/N=C(\C(=O)N[C@@H]1C(=O)N2C(C(=O)O)=C(c3csc(-c4ccc(O)c(O)c4)n3)CC[C@H]12)c1csc(N)n1 [Example 40, Sodium 7β-[(2-aminothiazol-4-yl)-Z-methoximinoacetylamino]-1-carba-(1-dethia)-3-2-(3,4-dihydroxyphenyl)thiazol-4-yl-3-cephem-4-carboxylate]",minimum inhibitory concentration,Streptococcus pn,.125
same,minimum inhibitory concentration,Streptococcus pn; retest,.125
same,minimum inhibitory concentration,Klebsiella; strain KAE,8
same,minimum inhibitory concentration,"Klebsiella; strain KAE, retest",4
same,minimum inhibitory concentration,Klebsiella; strain X26,.015
same,minimum inhibitory concentration,"Klebsiella; strain X26, retest",.03
same,minimum inhibitory concentration,Klebsiella; strain X68,.06
same,minimum inhibitory concentration,"Klebsiella; strain X68, retest",.06
same,minimum inhibitory concentration,Streptococcus D; strain 2041,16
same,minimum inhibitory concentration,"Streptococcus D; strain 2041, retest",16
same,minimum inhibitory concentration,Streptococcus D; strain X66,> 128
same,minimum inhibitory concentration,"Streptococcus D; strain X66, retest",> 128
same,minimum inhibitory concentration,Pseudomonas; strain PS18,64
same,minimum inhibitory concentration,"Pseudomonas; strain PS18, retest",64
same,minimum inhibitory concentration,"Pseudomonas; strain PS72, retest",128
same,minimum inhibitory concentration,"Pseudomonas; strain X239, retest",128
same,minimum inhibitory concentration,Pseudomonas; strain X528,8
same,minimum inhibitory concentration,"Pseudomonas; strain X528, retest",16
same,minimum inhibitory concentration,Proteus rett; strain C24,.125
same,minimum inhibitory concentration,"Proteus rett; strain C24, retest",.25
same,minimum inhibitory concentration,Citro; strain CF17,4
same,minimum inhibitory concentration,"Citro; strain CF17, retest",4
same,minimum inhibitory concentration,Serratia; strain SE3,1
same,minimum inhibitory concentration,"Serratia; strain SE3, retest",2
same,minimum inhibitory concentration,Serratia; strain X99,.25
same,minimum inhibitory concentration,"Serratia; strain X99, retest",.125
same,minimum inhibitory concentration,Salmonella; strain 1335,.06
same,minimum inhibitory concentration,"Salmonella; strain 1335, retest",.06
same,minimum inhibitory concentration,Salmonella; strain X514,.03
same,minimum inhibitory concentration,"Salmonella; strain X514, retest",.03
same,minimum inhibitory concentration,Staphylococcus Aureus; strain S13E,64
same,minimum inhibitory concentration,"Staphylococcus Aureus; strain S13E, retest",64
same,minimum inhibitory concentration,Staphylococcus Aureus; strain V41,16
same,minimum inhibitory concentration,"Staphylococcus Aureus; strain V41, retest",8
same,minimum inhibitory concentration,Staphylococcus Aureus; strain X1.1,8
same,minimum inhibitory concentration,"Staphylococcus Aureus; strain X1.1, retest",8
same,minimum inhibitory concentration,Staphylococcus Aureus; strain X400,> 128
same,minimum inhibitory concentration,"Staphylococcus Aureus; strain X400, retest",> 128
same,minimum inhibitory concentration,Staphylococcus Epi; strain 222,16
same,minimum inhibitory concentration,"Staphylococcus Epi; strain 222, retest",16
same,minimum inhibitory concentration,Staphylococcus Epi; strain 270,32
same,minimum inhibitory concentration,"Staphylococcus Epi; strain 270, retest",16
same,minimum inhibitory concentration,"H. Influ.; res, strain 76",.015
same,minimum inhibitory concentration,"H. Influ.; res, strain 76, retest",.03
same,minimum inhibitory concentration,"H. Influ.; sens, strain C.L.",.125
same,minimum inhibitory concentration,"H. Influ.; sens, strain C.L., retest",.125
same,minimum inhibitory concentration,Proteus morg; strain PR15,4
same,minimum inhibitory concentration,"Proteus morg; strain PR15, retest",4
same,minimum inhibitory concentration,Enterbacter Aerogenes; strain C32,.5
same,minimum inhibitory concentration,"Enterbacter Aerogenes; strain C32, retest",.5
same,minimum inhibitory concentration,Enterbacter Aerogenes; strain EB17,.03
same,minimum inhibitory concentration,"Enterbacter Aerogenes; strain EB17, retest",.06
same,minimum inhibitory concentration,Acin; strain AC12,4
same,minimum inhibitory concentration,"Acin; strain AC12, retest",2
same,minimum inhibitory concentration,Enterbacter Cloacea; strain 265A,64
same,minimum inhibitory concentration,"Enterbacter Cloacea; strain 265A, retest",32
same,minimum inhibitory concentration,Enterbacter Cloacea; strain EB5,.25
same,minimum inhibitory concentration,"Enterbacter Cloacea; strain EB5, retest",.25
same,minimum inhibitory concentration,Streptococcus A; strain C203,.06
same,minimum inhibitory concentration,"Streptococcus A; strain C203, retest",.125
same,minimum inhibitory concentration,E. coli; strain EC14,.06
same,minimum inhibitory concentration,"E. coli; strain EC14, retest",.06
same,minimum inhibitory concentration,E. coli; strain N10,.125
same,minimum inhibitory concentration,"E. coli; strain N10, retest",.125
same,minimum inhibitory concentration,E. coli; strain TEM,.06
same,minimum inhibitory concentration,"E. coli; strain TEM, retest",.03
same,minimum inhibitory concentration,Proteus incon; strain PR33,.125
same,minimum inhibitory concentration,"Proteus incon; strain PR33, retest",.25
"Nc1nc(C2=C(C(=O)O)N3C(=O)[C@@H](NC(=O)[C@H](N)c4ccccc4)[C@H]3CC2)cs1 [Example 41, 7β-(D-phenylglycylamino)-1-carba-(1-dethia)-3-(2-aminothiazol-4-yl)-3-cephem-4-carboxylic acid]",minimum inhibitory concentration,Streptococcus pn,2
same,minimum inhibitory concentration,Klebsiella; strain KAE,128
same,minimum inhibitory concentration,Klebsiella; strain X26,16
same,minimum inhibitory concentration,Klebsiella; strain X68,128
same,minimum inhibitory concentration,Streptococcus D; strain 2041,> 128
same,minimum inhibitory concentration,Streptococcus D; strain X66,> 128
same,minimum inhibitory concentration,Pseudomonas; strain PS18,> 128
same,minimum inhibitory concentration,Pseudomonas; strain PS72,> 128
same,minimum inhibitory concentration,Pseudomonas; strain X239,> 128
same,minimum inhibitory concentration,Pseudomonas; strain X528,> 128
same,minimum inhibitory concentration,Proteus rett; strain C24,> 128
same,minimum inhibitory concentration,Citro; strain CF17,> 128
same,minimum inhibitory concentration,Serratia; strain SE3,128
same,minimum inhibitory concentration,Serratia; strain X99,128
same,minimum inhibitory concentration,Salmonella; strain 1335,128
same,minimum inhibitory concentration,Salmonella; strain X514,128
same,minimum inhibitory concentration,Staphylococcus Aureus; strain S13E,64
same,minimum inhibitory concentration,Staphylococcus Aureus; strain V41,32
same,minimum inhibitory concentration,Staphylococcus Aureus; strain X1.1,4
same,minimum inhibitory concentration,Staphylococcus Aureus; strain X400,> 128
same,minimum inhibitory concentration,Staphylococcus Epi; strain 222,16
same,minimum inhibitory concentration,Staphylococcus Epi; strain 270,32
same,minimum inhibitory concentration,"H. Influ.; res, strain 76",32
same,minimum inhibitory concentration,"H. Influ.; sens, strain C.L.",64
same,minimum inhibitory concentration,Proteus morg; strain PR15,128
same,minimum inhibitory concentration,Enterbacter Aerogenes; strain C32,128
same,minimum inhibitory concentration,Enterbacter Aerogenes; strain EB17,128
same,minimum inhibitory concentration,Acin; strain AC12,> 128
same,minimum inhibitory concentration,Enterbacter Cloacea; strain 265A,> 128
same,minimum inhibitory concentration,Enterbacter Cloacea; strain EB5,128
same,minimum inhibitory concentration,Streptococcus A; strain C203,2
same,minimum inhibitory concentration,E. coli; strain EC14,64
same,minimum inhibitory concentration,E. coli; strain N10,128
same,minimum inhibitory concentration,E. coli; strain TEM,64
same,minimum inhibitory concentration,Proteus incon; strain PR33,128
